Measurements taken from patent US9597297B2, “Combination of pilocarpin and methimazol for treating Charcot-Marietooth disease and related disorders” (PHARNEXT, priority 2008, dated 2017).

Tested on: PMP22 mRNA
Test: PMP22 mRNA expression in primary rat Schwann cells after 24 hrs drug incubation
Assay type: cell-based
Description: Vials of rat Schwann cells (SC) primary culture (Sciencell # R1700) are defrosted and seeded at the density of 10,000 cells/cm2 in “Sciencell Schwann cell medium” (basal medium from Sciencell # R1701) in poly-L-lysine pre-coated 75 cm^2 flasks. The culture medium is composed of basal medium, 5% Fetal Bovine Serum (3H-Biomedical AB #1701-0025), 1% Schwann cell growth supplement (3H Biomedical AB #1701-1752), 1% Gentamicin (Sigma #G1397) and 10 μM of Forskolin (Sigma # F6886) to promote their proliferation.
After reaching confluency (4 to 10 days depending on cell batch), Schwann cells are purified by gentle agitation or by thy1.1 immunopanning that allow SC isolation from adherent fibroblasts, to produce cultures that are at least 95% pure. SC are then counted (Tryptan blue method) and seeded in poly-L-lysine pre-coated 75 cm^2 flask in the same SC medium. At confluency, cells are rinsed, trypsinized (trypsin-EDTA 1× diluted from Invitrogen #1540054), diluted in PBS without calcium and magnesium) counted and platted in 12 well-dishes (140 000 cells/well) in Sciencell Schwann cell medium with 5% of FBS, 1% of cell growth supplement (CGS), 40 μg/ml of gentamicin and 4 μM Forskolin.
Primary Schwann cell cultures (SC) are established from Sprague-Dawley newborn rats (between P0 and P2) sciatic nerves. All newborn rats are sacrificed and isolated in a Petri dish. Dissection is performed under sterile conditions.
The dorsal skin is removed from the hind paw and the lower torso. The sciatic nerve is isolated and transferred to a culture dish containing ice-cold Leibovitz (L15, Invitogen #11415) supplemented with 1% penicillin/streptomycin solution (50 UI/ml and 50 μg/ml, respectively; Invitrogen #15070) and 1% of bovine serum albumin (BSA, Sigma A6003). Both nerves per rats are transferred in a 15 ml tube containing ice-cold L15. The L15 medium is then removed and replaced by 2.4 ml of DMEM (Invitrogen #21969035) with 10 mg/ml of collagenase ([…]). Nerves are incubated in this medium for 30 minutes at 37° C. The medium is then removed and both nerves are dissociated by trypsin (10% trypsin EDTA 10×, Invitrogen #15400054) diluted in PBS without calcium and magnesium (Invitrogen #2007-03) for 20 min at 37° C. […] Cells are counted (Tryptan blue method) and seeded in Falcon 100 mm Primaria tissue culture plates at the density of 5·10^5 to 10^6 cells/dish. […]
After 8 days of culture (4 to 10 days depending on cell batches), Schwann cells reach confluency and the culture, containing a large amount of contaminating fibroblasts, is purified by the thy1.1 immunopanning method. […] Once they reach confluency, cells are rinsed, trypsinized (trypsin-EDTA), counted and platted in 12 well-dishes (100 000 cells/well). […]

| Compound | dose inducing the most important PMP22 mRNA down-regulation (primary Schwann cells) | PMP22 mRNA level (primary rat Schwann cells, 1 mM or 1 μM of compound A) | PMP22 mRNA level of expression (primary Schwann cells, low doses 10 nM and 50 nM) |
| --- | --- | --- | --- |
| Cn1cc[nH]c1=S [methimazole, 1-methyl-3H-imidazole-2-thione] | lower dose | significantly decreased | – |
| CC[C@@H]1C(=O)OC[C@@H]1Cc1cncn1C [pilocarpine, (3S,4R)-3-ethyl-4-[(3-methylimidazol-4-yl)methyl]oxolan-2-one] | 1 µM | – | significantly down-regulated |
